Legend:
[1] = acute toxicity (DL50 i.p.); settings: for DL50/DE50: toxic/active dose ratio
Swiss male mice = experiment: rota-rod test (muscle relaxant activity); assay type: in vivo; settings: for Resistance time (sec. M ± S.E.): thirty minutes before the test
Protocol: Muscle relaxant activity was evaluated with the rota-rod test. Swiss male mice weighing 20-25 g were treated intraperitoneally with the β-D isomer of compound (Ib) at doses of 1-3-10 mg/kg, thirty minutes before the test. Relaxant activity on striated muscles was evaluated by testing the resistance of the mice to the stimuli of a rotating plane revolving at increasing rate, from 2 to 50 r.p.m.

[2] = rota-rod, mice, dose 1 mg/Kg i.p.
[3] = rota-rod, mice, dose 3 mg/Kg i.p.
[4] = rota-rod, mice, dose 10 mg/Kg i.p.
[5] = rota-rod, mice, i.p., Table 1, with limits in brackets

| SMILES | DL50 ([1]; Table 2) [mg/kg i.p.] | DL50 ([1]; i.p.) | DL50/DE50 ([1]; i.p.) | DE50 (Swiss male mice; Table 2) [mg/kg i.p.] | muscle relaxant activity compared with thiocolchicoside (Swiss male mice; rota-rod, mice, 1-3-10 mg/kg i.p.) | Resistance time (sec. M ± S.E.) (Swiss male mice; [2]) [s] | Resistance time (sec. M ± S.E.) (Swiss male mice; [3]) [s] | Resistance time (sec. M ± S.E.) (Swiss male mice; [4]) [s] | DE50 (Swiss male mice; [5]) |
| --- | --- | --- | --- | --- | --- | --- | --- | --- | --- |
| COc1c(O[C@@H]2OC[C@@H](O)[C@H](O)[C@H]2O)cc2c(c1OC)-c1ccc(SC)c(=O)cc1C(NC(C)=O)CC2 (single isomer, unassigned) [Compound (Ib) isomer β-D, 3-O-β-D-xylopyranosyl-3-O-demethylthiocolchicine] | 80 | 80 (63-94) mg/kg | 35.87 | 2.23 | more active than thiocolchicoside | 270 ± 19 | 175 ± 14 | 80 ± 10 | 2.23 (1.84-2.82) mg/Kg |
| COc1c(O[C@@H]2O[C@H](CO)[C@@H](O)[C@H](O)[C@H]2O)cc2c(c1OC)-c1ccc(SC)c(=O)cc1[C@@H](NC(C)=O)CC2 [Thiocolchicoside isomer β-D, 3-demethyl-thiocolchicine glucoside, reference compound] | 20 | 20 mg/kg | 4.47 | 4.47 | – | 345 ± 20 | 265 ± 17 | 110 ± 12 | 4.47 (3.16-7.01) mg/Kg |

— patent US7683163B2, “Colchicoside analogues” (priority 2003, dated 2010)
